Data set [1] relates to C57BL/6 J mice. In words: PTZ-kindling-induced epileptic mice model. In kind it is in vivo. Here is the method: The PTZ-kindling-induced epileptic mice model was monitored as previously described (Singh et al. [2021]). PTZ (30 mg/kg, subconvulsive dose) was dissolved in saline and administered via intraperitoneal injection. TpNPY was dissolved in saline and delivered through daily intravenous injection of increasing concentrations (0.25 mg/kg, 0.5 mg/kg and 1 mg/kg) 30 min before PTZ injections for 14 consecutive days. Randomized grouping was used to divide C57BL/6 mice into 7 groups with 10 mice in each group. Then, behavioral observation was carried out at the same time, until the seizure of mice was kindled. The PTZ-only group was not exposed to TpNPY, and the control group was only given saline.

A further data set relates to HT22 cells. In words: HT22 cell viability (MTT assay). Type of data set: cell-based, mouse. The conditions noted are these: for cell viability: 24 h. Here is the method:
The HT22 cell line was obtained from the ATCC (Manassas, VA, USA) and cultured in DMEM medium with an additional 10% fetal bovine serum (Gibco, US origin), 1% penicillin (100 U/mL) and streptomycin 100 (µg/mL) in a humidified 5% CO2 atmosphere at 37 °C. Cell viability was evaluated by measuring the activity of mitochondrial dehydrogenases with 3-(4,5-dimethyl-2-thiazolyl) 2,5 diphenyl-2H-tetrazolium bromide (MTT) assay (Sigma-Aldrich, USA). Briefly, HT22 cells were seeded in 96-well plates at a density of 8 × 10^3 cells per well. After various drug incubation, cells were incubated in 0.5 mg/mL MTT solution for 4 h at 37 °C. The supernatant medium was then discarded, and 100 µL of DMSO per well was added to dissolve the violet-formazan crystals. The absorbance at 570 nm wavelength was then tested by SpectraMax M5 (Wallac, The Netherlands). Under the same cell culture conditions as the cell viability assay, cytotoxicity was also evaluated via LDH release using an LDH assay kit (Beyotime, China). After different treatments, the supernatant of the cell culture medium was collected and tested according to the manufacturer’s protocol. The absorbance at 490 nm wavelength of supernatant was recorded by SpectraMax M5 (Wallac, The Netherlands).
Background: Formazan colour is commonly taken as a measure of viable cells.

A further data set concerns zebrafish larvae. In words: Zebrafish larvae survival/mortality. In kind it is in vivo. The conditions noted are these: 24 h exposure, 6-dpf AB wild-type larvae. Here is the method: The 6-day post-fertilization (6-dpf) AB wild-type zebrafish were treated with various concentrations of TpNPY for 24 h in zebrafish-specific E3 culture medium. The mortality of zebrafish was calculated based on the observation of their heartbeat. To trigger seizures, zebrafish larvae were subjected to zebrafish culture medium containing 10 mM PTZ (Sigma-Aldrich, purity ≥ 99%) in 96-well plates. Their locomotor behaviors were recorded using a digital video tracking system (ViewPoint Behavior Technology, France).

In data set [2] the test system is C57BL/6 J mice. The data set is described as follows: Morris water maze (MWM) test. In kind it is in vivo. The conditions noted are these: MWM test stage, n = 6. As for the experimental part: The Morris Water Maze (MWM) test assessed spatial learning and memory in mice (Bromley-Brits et al. [2011]). A circular pool (opaque with milk powder) was divided into four quadrants, with a hidden platform submerged in the third quadrant. Eight-week-old male C57BL/6 J mice were trained over five days (4 trials/day) to locate the platform, guided by visual cues. Escape latency (max 60 s) and platform stay time (30 s) were recorded. A probe trial (platform removed) was conducted 24 h post-training, recording time to the platform site, crossings, speed, and distance via a video camera connected to the ANY-maze Video Tracking System.

Data set [3] has as its target T1, NPY-Y1 receptor (NPY-Y1R) (Homo sapiens, UniProt P25929).
T1 chain: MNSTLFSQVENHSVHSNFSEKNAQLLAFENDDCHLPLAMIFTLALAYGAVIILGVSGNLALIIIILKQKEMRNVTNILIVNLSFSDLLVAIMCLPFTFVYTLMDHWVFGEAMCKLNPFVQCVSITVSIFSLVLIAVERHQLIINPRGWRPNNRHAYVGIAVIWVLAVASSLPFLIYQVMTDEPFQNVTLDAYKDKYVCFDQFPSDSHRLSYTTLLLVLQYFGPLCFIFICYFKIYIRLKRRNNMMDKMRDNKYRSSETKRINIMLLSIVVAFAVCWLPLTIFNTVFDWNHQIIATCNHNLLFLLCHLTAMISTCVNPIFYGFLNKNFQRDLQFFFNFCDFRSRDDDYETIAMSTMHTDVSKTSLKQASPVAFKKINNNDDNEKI
In words: SPR. In general terms: In SPR one partner is held on a chip, and binding of the other changes the refractive index at the surface.

Where no end group is shown, it is not given here.

Four molecules from article PMC12858582, “A coral-derived neuropeptide suppresses pentylenetetrazol (PTZ)-induced epileptic seizures and improves recognition memory deficits by modulating NPY-Y1R” (Archives of Toxicology, 2025) can be followed below.

For `C1CCc2nnnn2CC1` [PTZ, Pentylenetetrazole, reference compound], in the data set with C57BL/6 J mice [1] (PTZ-treated group, PTZ 30 mg/kg i.p., no TpNPY, after 15 injections, mean ± SEM, SEM), the seizure score is recorded as 4.91 ± 0.41.

The cell viability is a per cent measure of how many cells are alive, often set against a control. Regarding `N[C@@H](CCC(=O)O)C(=O)O` [glutamate], the cell viability is recorded as 78.22% in the data set with HT22 cells (10 mM glutamate), 64.78% in the data set on HT22 cells (15 mM glutamate) and 40.82% in the data set with HT22 cells (20 mM glutamate).

On to “VGGPPKRPESFKSMAELNAYLSDLAGYYTVIGRPRF-NH2 [TpNPY]”, for which the “mortality rate of zebrafish larvae” value in the data set with zebrafish larvae (40 μM) is on record as “approximately 50%”. For the same molecule, the “survival rate of zebrafish larvae” value with zebrafish larvae (6-25 μM) is recorded as “did not lead to any substantial changes in the survival rate”. In the data set with C57BL/6 J mice [1] (TpNPY without PTZ), the “behavior of mice, TpNPY alone” value is on record as “no obvious influence on the behavior of mice”. Besides, in the data set on C57BL/6 J mice [2], the swimming speed result was “without affecting swimming speed”. Further, the “cell viability (cytotoxicity of TpNPY)” value in the data set with HT22 cells (1.56 to 50 μM, 24 h incubation) was “did not elicit any significant changes in cell viability”.

One may read the Kd as the constant that tells how readily two partners part at equilibrium. With VGGPPKRPESFKSMAELNAYLSDLAGYYTVIGRPRF-NH2 [TpNPY], the Kd in data set [3] worked out at 1980 nM.
